According to ChEMBL document CHEMBL5150035, “Mechanism-based inhibition of GH127/146 cysteine glycosidases by stereospecifically functionalized l-arabinofuranosides” (Bioorg Med Chem, 2022):
Activity calls are given as the source filed them. No cut-off for these calls is given here.

Experiments:
[1] = Substrate activity at Bifidobacterium longum JCM 1217 HypBA1 homologue BLLJ_1848 at 10 mM incubated for 24 hrs in presence of TCEP by TLC analysis; type: ADME; details: 10000 µM
[2] = Drug metabolism assessed as hydrolysed metabolite formation at 10 mM incubated for 24 hrs in presence of TCEP by TLC analysis; type: ADME; details: 10000 µM
Bifidobacterium longum [3] = experiment: Inhibition of Bifidobacterium longum JCM 1217 HypBA1 homologue BLLJ_1848 using S3 as substrate preincubated with enzyme followed by substrate addition for 30 mins in absence of TCEP by HPLC-FLD analysis
Bifidobacterium longum [4] = experiment: Inhibition of Bifidobacterium longum JCM 1217 HypBA1 homologue BLLJ_1848 using S3 as substrate preincubated with enzyme followed by substrate addition for 30 mins in presence of TCEP by HPLC-FLD analysis
[5] = Substrate activity at Bifidobacterium longum JCM 1217 HypBA1 homologue BLLJ_1848 at 10 mM incubated for 24 hrs in absence of TCEP by TLC analysis; type: ADME; details: 10000 µM
[6] = biological target: T1, Non-reducing end beta-L-arabinofuranosidase (Bifidobacterium longum subsp. longum) (UniProt E8MGH8); experiment: (§1) Inhibition of C-terminal-His6-tagged Bifidobacterium longum HypBA1 expressed in Escherichia coli C43 (DE3) cells assessed as reduction in pNP liberation using pNP-beta-L-Araf as substrate at 0.1 to 1 mM preincubated with enzyme for 2 hrs followed by substrate addition and measured after 24 hrs by spectrophotometric analysis; details: dose 0.1-1 mM, time 26.0 hrs
T1 sequence (whole entry): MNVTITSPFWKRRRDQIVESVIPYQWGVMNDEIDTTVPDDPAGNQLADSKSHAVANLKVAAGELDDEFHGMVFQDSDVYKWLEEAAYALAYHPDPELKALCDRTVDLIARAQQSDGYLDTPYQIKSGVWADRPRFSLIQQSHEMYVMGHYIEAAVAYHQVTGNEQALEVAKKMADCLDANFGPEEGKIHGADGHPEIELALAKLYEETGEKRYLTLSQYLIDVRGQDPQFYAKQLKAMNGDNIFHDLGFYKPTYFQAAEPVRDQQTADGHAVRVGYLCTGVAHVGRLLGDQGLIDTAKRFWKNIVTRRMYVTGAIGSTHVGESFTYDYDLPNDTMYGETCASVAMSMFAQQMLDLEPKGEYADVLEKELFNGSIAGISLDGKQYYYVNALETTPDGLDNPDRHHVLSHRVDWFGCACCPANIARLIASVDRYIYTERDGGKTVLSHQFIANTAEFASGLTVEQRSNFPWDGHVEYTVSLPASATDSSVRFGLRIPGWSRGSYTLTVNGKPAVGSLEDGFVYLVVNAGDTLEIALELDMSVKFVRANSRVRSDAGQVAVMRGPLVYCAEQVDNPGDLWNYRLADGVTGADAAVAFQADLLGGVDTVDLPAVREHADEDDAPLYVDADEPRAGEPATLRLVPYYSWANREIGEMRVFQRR

[7] = biological target: T1, Non-reducing end beta-L-arabinofuranosidase (Bifidobacterium longum subsp. longum); experiment: as §1, with “L-Araf3-Hyp” for “pNP-beta-L-Araf”, “substrate” for “substrate at 0.1 to 1 mM”; details: time 26.0 hrs

| SMILES | Activity [1] | Drug metabolism [2] | inhibition [6] | inhibition [7] | also measured |
| --- | --- | --- | --- | --- | --- |
| [N-]=[N+]=N[C@@H]1O[C@@H](CO)[C@H](O)[C@H]1O | Active | Metabolite_Detected |  |  | inhibition (Bifidobacterium longum [3]): Active; inhibition (Bifidobacterium longum [4]): Active |
| [N-]=[N+]=N[C@H]1O[C@@H](CO)[C@H](O)[C@H]1O | Active | Metabolite_Detected |  |  | Activity [5]: Active |
| O=C(CBr)N[C@@H]1O[C@@H](CO)[C@H](O)[C@H]1O |  |  | Active |  |  |
| O=C(CCl)N[C@H]1O[C@@H](CO)[C@H](O)[C@H]1O |  |  |  | Active |  |
| O=C(CCl)N[C@@H]1O[C@@H](CO)[C@H](O)[C@H]1O |  |  |  | Active |  |
| O=C(CBr)N[C@H]1O[C@@H](CO)[C@H](O)[C@H]1O |  |  | Active |  |  |
